# From ChEMBL document CHEMBL2346630 (J Med Chem, 2013)
# Legend:
# Assay in all cases: biochemical
# CDK9/cyclin T1 = CDK9/cyclin T1 (Homo sapiens, UniProt P50750)
# Description: Inhibition of human recombinant His6 tagged CDK9/CyclinT1 expressed in Sf21 insect cells after 40 mins by scintillation counting analysis
# [1] = target: Cyclin-dependent kinase 1/cyclin B1 (Homo sapiens, UniProt P06493)
# Description: Inhibition of human recombinant His6 tagged CDK1/Cyclin B expressed in Sf21 insect cells after 40 mins by scintillation counting analysis
# [2] = target: Cyclin-dependent kinase 7/ cyclin H (Homo sapiens, UniProt P50613)
# Description: Inhibition of human recombinant His6 tagged CDK7/CyclinH/MAT1 expressed in Sf21 insect cells after 40 mins by scintillation counting analysis
# [3] = target: Cyclin-dependent kinase 2/cyclin A (Homo sapiens, UniProt P24941)
# Description: Inhibition of human recombinant His6 tagged CDK2/Cyclin A expressed in Sf21 insect cells after 40 mins by scintillation counting analysis
# Chain of CDK9/cyclin T1 (O60563 whole entry): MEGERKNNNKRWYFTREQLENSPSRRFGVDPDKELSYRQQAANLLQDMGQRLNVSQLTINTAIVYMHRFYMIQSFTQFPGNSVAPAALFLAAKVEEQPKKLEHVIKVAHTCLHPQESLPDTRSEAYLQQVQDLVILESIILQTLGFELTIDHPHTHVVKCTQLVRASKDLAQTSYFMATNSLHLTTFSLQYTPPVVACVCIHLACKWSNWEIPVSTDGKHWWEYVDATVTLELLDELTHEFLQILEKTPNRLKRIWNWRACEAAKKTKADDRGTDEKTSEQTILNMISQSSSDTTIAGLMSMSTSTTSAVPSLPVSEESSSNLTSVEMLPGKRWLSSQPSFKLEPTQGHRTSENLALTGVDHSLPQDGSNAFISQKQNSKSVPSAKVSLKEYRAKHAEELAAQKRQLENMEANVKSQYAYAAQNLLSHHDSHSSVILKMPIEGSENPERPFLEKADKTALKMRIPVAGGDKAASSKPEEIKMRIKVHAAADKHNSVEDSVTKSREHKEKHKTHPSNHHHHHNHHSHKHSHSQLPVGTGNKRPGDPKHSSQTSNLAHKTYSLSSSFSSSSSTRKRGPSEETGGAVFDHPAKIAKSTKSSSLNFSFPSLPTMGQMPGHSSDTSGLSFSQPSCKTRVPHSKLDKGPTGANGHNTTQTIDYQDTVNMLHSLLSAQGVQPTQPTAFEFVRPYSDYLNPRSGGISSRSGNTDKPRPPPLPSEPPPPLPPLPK
# Chain of CDK9/cyclin T1 (P50750 whole entry): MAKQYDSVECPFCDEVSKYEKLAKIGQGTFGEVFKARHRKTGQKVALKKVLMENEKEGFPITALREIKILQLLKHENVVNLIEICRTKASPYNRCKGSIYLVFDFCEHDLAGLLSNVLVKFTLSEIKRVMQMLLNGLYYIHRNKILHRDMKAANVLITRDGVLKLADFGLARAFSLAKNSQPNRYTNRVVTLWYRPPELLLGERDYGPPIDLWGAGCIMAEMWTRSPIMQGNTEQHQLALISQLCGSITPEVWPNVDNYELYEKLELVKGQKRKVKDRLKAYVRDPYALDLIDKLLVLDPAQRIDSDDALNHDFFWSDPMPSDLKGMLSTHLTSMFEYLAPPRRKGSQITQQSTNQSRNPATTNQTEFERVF
# Chain of Cyclin-dependent kinase 7/ cyclin H (P51946 whole entry): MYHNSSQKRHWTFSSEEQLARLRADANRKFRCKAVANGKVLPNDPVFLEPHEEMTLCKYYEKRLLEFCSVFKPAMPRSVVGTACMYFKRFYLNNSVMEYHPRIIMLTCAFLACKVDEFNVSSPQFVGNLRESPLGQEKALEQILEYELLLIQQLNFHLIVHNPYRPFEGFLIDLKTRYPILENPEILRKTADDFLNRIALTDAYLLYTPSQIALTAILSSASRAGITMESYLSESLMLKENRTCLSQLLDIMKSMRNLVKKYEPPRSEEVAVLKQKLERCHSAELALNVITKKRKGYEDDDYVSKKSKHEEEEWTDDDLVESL
# Chain of Cyclin-dependent kinase 7/ cyclin H (P50613 whole entry): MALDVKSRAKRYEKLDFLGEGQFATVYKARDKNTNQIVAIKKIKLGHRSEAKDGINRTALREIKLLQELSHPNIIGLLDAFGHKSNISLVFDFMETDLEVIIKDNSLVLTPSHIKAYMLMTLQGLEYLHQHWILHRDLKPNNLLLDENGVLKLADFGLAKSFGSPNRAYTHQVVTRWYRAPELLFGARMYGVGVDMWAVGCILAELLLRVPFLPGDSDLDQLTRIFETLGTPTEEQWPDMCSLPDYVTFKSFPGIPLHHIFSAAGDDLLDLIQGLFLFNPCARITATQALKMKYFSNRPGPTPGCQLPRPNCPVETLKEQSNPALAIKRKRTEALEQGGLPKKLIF
# Chain of Cyclin-dependent kinase 1/cyclin B1 (P06493 whole entry): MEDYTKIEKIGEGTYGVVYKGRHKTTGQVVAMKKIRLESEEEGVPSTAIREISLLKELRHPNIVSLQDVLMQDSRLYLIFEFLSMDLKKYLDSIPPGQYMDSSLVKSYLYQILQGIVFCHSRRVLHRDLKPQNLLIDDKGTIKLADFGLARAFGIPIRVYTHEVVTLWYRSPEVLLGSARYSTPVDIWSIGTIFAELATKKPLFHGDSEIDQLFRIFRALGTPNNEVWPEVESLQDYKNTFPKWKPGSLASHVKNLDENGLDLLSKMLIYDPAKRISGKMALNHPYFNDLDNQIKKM
# Chain of Cyclin-dependent kinase 1/cyclin B1 (P14635 whole entry, further chain): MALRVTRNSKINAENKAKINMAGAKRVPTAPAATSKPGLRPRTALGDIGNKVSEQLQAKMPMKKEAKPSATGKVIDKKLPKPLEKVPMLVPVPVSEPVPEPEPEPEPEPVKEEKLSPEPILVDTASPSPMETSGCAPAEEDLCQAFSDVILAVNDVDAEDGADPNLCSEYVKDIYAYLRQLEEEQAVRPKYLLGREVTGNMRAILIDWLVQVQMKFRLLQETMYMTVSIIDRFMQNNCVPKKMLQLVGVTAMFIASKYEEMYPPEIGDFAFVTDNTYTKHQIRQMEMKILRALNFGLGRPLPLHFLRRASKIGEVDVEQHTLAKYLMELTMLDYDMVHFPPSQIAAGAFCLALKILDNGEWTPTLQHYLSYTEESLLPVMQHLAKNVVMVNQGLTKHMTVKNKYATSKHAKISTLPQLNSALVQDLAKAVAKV
SMILES,Ki (CDK9/cyclin T1),Ki [1],Ki [2],Ki [3]
CNc1nc(-c2ccccc2)c(-c2ccnc(Nc3cccc([N+](=O)[O-])c3)n2)s1,> 5000 nM,> 5000 nM,> 5000 nM,–
CNc1nc(C)c(-c2nc(Nc3cccc([N+](=O)[O-])c3)ncc2O)s1,932 nM,1420 nM,> 5000 nM,> 5000 nM
CNc1nc(C)c(-c2ccnc(Nc3cccc(S(N)(=O)=O)c3)n2)s1,2 nM,6 nM,1960 nM,4 nM
CNc1nc(C)c(-c2nc(Nc3cccc(S(N)(=O)=O)c3)ncc2O)s1,> 5000 nM,> 5000 nM,> 5000 nM,> 5000 nM
CNc1nc(C)c(-c2nc(Nc3cccc(S(N)(=O)=O)c3)ncc2Cl)s1,11 nM,–,685 nM,–
CNc1nc(C)c(-c2nc(Nc3cccc(S(N)(=O)=O)c3)ncc2C)s1,5 nM,–,1180 nM,34 nM
CCc1cnc(Nc2cccc(S(N)(=O)=O)c2)nc1-c1sc(NC)nc1C,98 nM,788 nM,1280 nM,845 nM
CCCc1cnc(Nc2cccc(S(N)(=O)=O)c2)nc1-c1sc(NC)nc1C,> 5000 nM,–,–,> 5000 nM
CNc1nc(C)c(-c2nc(Nc3cccc(N4CCN(C(C)=O)CC4)c3)ncc2C#N)s1,7 nM,43 nM,92 nM,43 nM
CNc1nc(C)c(-c2nc(Nc3cccc(N4CCNCC4)c3)ncc2C#N)s1,5 nM,42 nM,68 nM,56 nM
CNc1nc(C)c(-c2nc(Nc3ccc(N4CCN(C(C)=O)CC4)cc3)ncc2C#N)s1,22 nM,45 nM,316 nM,26 nM
CNc1nc(C)c(-c2nc(Nc3ccc(N4CCNCC4)cc3)ncc2C#N)s1,6 nM,79 nM,71 nM,39 nM
CNc1nc(C)c(-c2nc(Nc3cccc(N4CCCCC4)c3)ncc2C#N)s1,9 nM,35 nM,286 nM,42 nM
CNc1nc(C)c(-c2nc(Nc3cccc(N4CCN(C(C)=O)CC4)c3)ncc2F)s1,7 nM,26 nM,302 nM,42 nM
CNc1nc(C)c(-c2nc(Nc3cccc(N4CCNCC4)c3)ncc2F)s1,4 nM,24 nM,193 nM,20 nM
CNc1nc(C)c(-c2nc(Nc3cccc(N4CCOCC4)c3)ncc2F)s1,3 nM,18 nM,473 nM,20 nM

SMILES,Ki (CDK9/cyclin T1),Ki [1],Ki [2],Ki [3]
CNc1nc(C)c(-c2nc(Nc3cccc(N4CCNCC4)c3)ncc2Cl)s1,4 nM,88 nM,155 nM,45 nM
CNc1nc(C)c(-c2nc(Nc3cccc(N4CCCNCC4)c3)ncc2F)s1,5 nM,47 nM,111 nM,85 nM
CNc1nc(C)c(-c2ccnc(Nc3cccc(N4CCCNCC4)c3)n2)s1,19 nM,195 nM,433 nM,320 nM
CNc1nc(CC(F)(F)F)c(-c2ccnc(Nc3cccc([N+](=O)[O-])c3)n2)s1,134 nM,> 5000 nM,> 5000 nM,> 5000 nM
CNc1nc(CC(F)(F)F)c(-c2ccnc(Nc3cccc(O)c3)n2)s1,245 nM,556 nM,3470 nM,282 nM
CNc1nc(CC(F)(F)F)c(-c2ccnc(Nc3ccc(O)cc3)n2)s1,278 nM,334 nM,1540 nM,347 nM
CNc1nc(CC(F)(F)F)c(-c2ccnc(Nc3cccc(S(N)(=O)=O)c3)n2)s1,156 nM,154 nM,1980 nM,226 nM
CNc1nc(C(F)(F)F)c(-c2ccnc(Nc3cccc(S(N)(=O)=O)c3)n2)s1,2 nM,1.5 nM,47 nM,2 nM
CNc1nc(C(F)(F)F)c(-c2ccnc(Nc3ccc(S(N)(=O)=O)cc3)n2)s1,3 nM,0.5 nM,64 nM,1.5 nM
CNc1ncc(-c2ccnc(Nc3ccc(S(N)(=O)=O)cc3)n2)s1,–,–,54 nM,–
CNc1ncc(-c2ccnc(Nc3cccc(S(N)(=O)=O)c3)n2)s1,3 nM,4 nM,40 nM,5 nM
CNc1nc(C2CC2)c(-c2ccnc(Nc3cccc(S(N)(=O)=O)c3)n2)s1,16 nM,18 nM,273 nM,2 nM
CNc1nc(C2CC2)c(-c2ccnc(Nc3ccc(S(N)(=O)=O)cc3)n2)s1,8 nM,2 nM,255 nM,13 nM
CNc1nc(C2CC2)c(-c2ccnc(Nc3cccc(N4CCCNCC4)c3)n2)s1,66 nM,176 nM,464 nM,326 nM
CNc1nc(C)c(-c2ccnc(Nc3cccc([N+](=O)[O-])c3)n2)s1,2 nM,5 nM,417 nM,3 nM
